Target: T1, b-Raf(V600E) (Homo sapiens, UniProt P15056, V600E)
T1 construct: made in house
Experiment: Raf/Mek Amplified Luminescence Proximity Homogeneous Assay (Alpha Screen), b-Raf(V600E)
Assay type: biochemical
Details: mutant b-Raf(V600E), read-out: mut-b-RAF (IC50 in uM)
Outline: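 Active b-Raf(V600E) (~4 pM) pre-incubated 60 min at room temperature with compound and kinase-dead biotinylated Mek (~10 nM) in Tris pH 7.5, MgCl2, BSA, DTT; ATP-started reaction ran 3 h, EDTA-stopped. Phospho-MEK detected by anti-p-MEK AlphaScreen luminescence; IC50 by non-linear regression.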

T1 sequence (P15056 whole entry V600E): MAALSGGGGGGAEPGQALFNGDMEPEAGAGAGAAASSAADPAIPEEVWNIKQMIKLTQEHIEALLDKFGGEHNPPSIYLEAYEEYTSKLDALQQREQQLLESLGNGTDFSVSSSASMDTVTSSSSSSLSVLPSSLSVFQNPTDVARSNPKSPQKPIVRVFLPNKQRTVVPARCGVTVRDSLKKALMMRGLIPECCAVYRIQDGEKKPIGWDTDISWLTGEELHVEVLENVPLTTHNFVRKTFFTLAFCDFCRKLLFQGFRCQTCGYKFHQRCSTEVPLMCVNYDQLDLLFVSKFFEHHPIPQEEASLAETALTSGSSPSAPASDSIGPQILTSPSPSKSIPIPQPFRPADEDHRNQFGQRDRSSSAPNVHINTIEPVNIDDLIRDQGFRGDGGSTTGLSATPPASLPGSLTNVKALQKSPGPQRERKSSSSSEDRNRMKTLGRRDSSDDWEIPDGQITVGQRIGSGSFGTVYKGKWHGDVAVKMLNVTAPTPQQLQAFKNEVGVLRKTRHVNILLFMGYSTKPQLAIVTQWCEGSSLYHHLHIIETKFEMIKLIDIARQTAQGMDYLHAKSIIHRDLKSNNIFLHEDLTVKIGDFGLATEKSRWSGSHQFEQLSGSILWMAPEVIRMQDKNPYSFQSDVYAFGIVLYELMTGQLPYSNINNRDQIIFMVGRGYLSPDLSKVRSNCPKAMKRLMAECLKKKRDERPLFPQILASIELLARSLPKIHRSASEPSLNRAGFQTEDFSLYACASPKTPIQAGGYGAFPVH

IC50 [µM]	SMILES
0.0007	Fc1ccc(-c2nc(-c3ccncc3)c(-c3cnc4[nH]cc(Br)c4c3)[nH]2)cc1 [Compound 151, 3-bromo-5-(2-(4-fluorophenyl)-4-(pyridin-4-yl)-1H-imidazol-5-yl)-1H-pyrrolo[2,3-b]pyridine]
0.0002	COc1cccc(Nc2nccc(-c3[nH]c(-c4ccc(F)cc4)nc3-c3cnc(N)c(OC)c3)n2)c1 [Compound 153, 4-(4-(6-amino-5-methoxypyridin-3-yl)-2-(4-fluorophenyl)-1H-imidazol-5-yl)-N-(3-methoxyphenyl)pyrimidin-2-amine]
0.0051	COc1cc(-c2nc(-c3ccc(F)cc3)[nH]c2-c2ccnc(NC(C)C)n2)cnc1N [Compound 158, 4-(4-(6-amino-5-methoxypyridin-3-yl)-2-(4-fluorophenyl)-1H-imidazol-5-yl)-N-isopropylpyrimidin-2-amine]
0.0015	COc1cc(-c2nc(-c3ccc(F)cc3)[nH]c2-c2ccnc(NCC(C)C)n2)cnc1N [Compound 159, 4-(4-(6-amino-5-methoxypyridin-3-yl)-2-(4-fluorophenyl)-1H-imidazol-5-yl)-N-isobutylpyrimidin-2-amine]
0.0003	COCC(=O)NCCNc1nccc(-c2nc(-c3ccc(F)cc3)[nH]c2-c2cnc3[nH]cc(Cl)c3c2)n1 [Compound 160, N-(2-(4-(5-(3-chloro-1H-pyrrolo[2,3-b]pyridin-5-yl)-2-(4-fluorophenyl)-1H-imidazol-4-yl)pyrimidin-2-ylamino)ethyl)-2-methoxyacetamide]
0.0022	COCCNc1nccc(-c2nc(-c3ccc(F)cc3)[nH]c2-c2cnc(N)c(OC)c2)n1 [Compound 161, 4-(5-(6-amino-5-methoxypyridin-3-yl)-2-(4-fluorophenyl)-1H-imidazol-4-yl)-N-(2-methoxyethyl)pyrimidin-2-amine]
0.0163	COc1cc(-c2[nH]c(-c3ccc(F)cc3)nc2-c2ccnc(NC3CCCC3)n2)cnc1N [Compound 164, 4-(5-(6-amino-5-methoxypyridin-3-yl)-2-(4-fluorophenyl)-1H-imidazol-4-yl)-N-cyclopentylpyrimidin-2-amine]
0.0483	COc1cc(-c2[nH]c(-c3ccc(F)cc3)nc2-c2ccnc(NC3CCCCC3)n2)cnc1N [Compound 165, 4-(5-(6-amino-5-methoxypyridin-3-yl)-2-(4-fluorophenyl)-1H-imidazol-4-yl)-N-cyclohexylpyrimidin-2-amine]
0.0001	COCC(=O)NCCNc1nccc(-c2nc(-c3ccc(F)cc3)[nH]c2-c2cnc3[nH]cc(Br)c3c2)n1 [Compound 166, N-(2-(4-(5-(3-bromo-1H-pyrrolo[2,3-b]pyridin-5-yl)-2-(4-fluorophenyl)-1H-imidazol-4-yl)pyrimidin-2-ylamino)ethyl)-2-methoxyacetamide]
0.0013	COc1cc(-c2nc(-c3ccc(F)cc3)[nH]c2-c2ccnc(Nc3cccc(C(F)(F)F)c3)n2)cnc1N [Compound 171, 4-(4-(6-amino-5-methoxypyridin-3-yl)-2-(4-fluorophenyl)-1H-imidazol-5-yl)-N-(3-(trifluoromethyl)phenyl) pyrimidin-2-amine]
0.0014	COc1cc(-c2nc(-c3ccc(F)cc3)[nH]c2-c2ccnc(Nc3cccc(F)c3)n2)cnc1N [Compound 172, 4-(4-(6-amino-5-methoxypyridin-3-yl)-2-(4-fluorophenyl)-1H-imidazol-5-yl)-N-(3-fluorophenyl)pyrimidin-2-amine]
0.0023	CCNc1nccc(-c2nc(-c3ccc(F)cc3)[nH]c2-c2cnc(N)c(OC)c2)n1 [Compound 174, 4-(5-(6-amino-5-methoxypyridin-3-yl)-2-(4-fluorophenyl)-1H-imidazol-4-yl)-N-ethylpyrimidin-2-amine]
0.0012	CCCNc1nccc(-c2nc(-c3ccc(F)cc3)[nH]c2-c2cnc(N)c(OC)c2)n1 [Compound 175, 4-(5-(6-amino-5-methoxypyridin-3-yl)-2-(4-fluorophenyl)-1H-imidazol-4-yl)-N-propylpyrimidin-2-amine]
0.0046	CC[C@H](C)Nc1nccc(-c2nc(-c3ccc(F)cc3)[nH]c2-c2cnc(N)c(OC)c2)n1 [Compound 176, (S)-4-(5-(6-amino-5-methoxypyridin-3-yl)-2-(4-fluorophenyl)-1H-imidazol-4-yl)-N-sec-butylpyrimidin-2-amine]
0.001	COCCCNc1nccc(-c2nc(-c3ccc(F)cc3)[nH]c2-c2cnc(N)c(OC)c2)n1 [Compound 179, 4-(5-(6-amino-5-methoxypyridin-3-yl)-2-(4-fluorophenyl)-1H-imidazol-4-yl)-N-(3-methoxypropyl)pyrimidin-2-amine]
0.892	COc1cc(-c2[nH]c(-c3ccc(F)cc3)nc2-c2ccnc(O)n2)cnc1N [Compound 180, 4-(5-(6-amino-5-methoxypyridin-3-yl)-2-(4-fluorophenyl)-1H-imidazol-4-yl)pyrimidin-2-ol]
0.0099	CC[C@@H](C)Nc1nccc(-c2nc(-c3ccc(F)cc3)[nH]c2-c2cnc(N)c(OC)c2)n1 [Compound 181, (R)-4-(5-(6-amino-5-methoxypyridin-3-yl)-2-(4-fluorophenyl)-1H-imidazol-4-yl)-N-sec-butylpyrimidin-2-amine]
0.0002	Cc1c[nH]c2ncc(-c3[nH]c(-c4ccc(F)cc4)nc3-c3ccncc3)cc12 [Compound 182, 5-(2-(4-fluorophenyl)-4-(pyridin-4-yl)-1H-imidazol-5-yl)-3-methyl-1H-pyrrolo[2,3-b]pyridine]
0.0007	COc1cc(-c2[nH]c(-c3ccc(F)cc3)nc2-c2ccnc(NCC3CC3)n2)cnc1N [Compound 183, 4-(5-(6-amino-5-methoxypyridin-3-yl)-2-(4-fluorophenyl)-1H-imidazol-4-yl)-N-(cyclopropylmethyl) pyrimidin-2-amine]

Further lines, the compound ahead of its results:

SMILES	IC50 [µM]
Cc1cc(-c2[nH]c(-c3ccc(F)cc3)nc2-c2ccncc2)cnc1N [Compound 152, 5-(2-(4-fluorophenyl)-4-(pyridin-4-yl)-1H-imidazol-5-yl)-3-methylpyridin-2-amine]	0.0658
COc1cc(-c2nc(C3=CCOCC3)[nH]c2-c2ccncc2)cnc1N [Compound 154, 5-(2-(3,6-dihydro-2H-pyran-4-yl)-5-(pyridin-4-yl)-1H-imidazol-4-yl)-3-methoxypyridin-2-amine]	0.0033
COc1cc(-c2nc(C3=CCNCC3)[nH]c2-c2ccncc2)cnc1N [Compound 155, 3-methoxy-5-(5-(pyridin-4-yl)-2-(1,2,3,6-tetrahydropyridin-4-yl)-1H-imidazol-4-yl)pyridin-2-amine]	0.0162
COc1cc(-c2nc(C3(O)CCN(C)CC3)[nH]c2-c2ccncc2)cnc1N [Compound 156, 4-(4-(6-amino-5-methoxypyridin-3-yl)-5-(pyridin-4-yl)-1H-imidazol-2-yl)-1-methylpiperidin-4-ol]	0.0093
CN(C)c1cncc(-c2[nH]c(-c3ccc(F)cc3)nc2-c2ccncc2)c1 [Compound 157, 5-(2-(4-fluorophenyl)-4-(pyridin-4-yl)-1H-imidazol-5-yl)-N,N-dimethylpyridin-3-amine]	0.017
COc1cc(-c2nc(C3CCOCC3)[nH]c2-c2ccncc2)cnc1N [Compound 162, 3-methoxy-5-(5-(pyridin-4-yl)-2-(tetrahydro-2H-pyran-4-yl)-1H-imidazol-4-yl)pyridin-2-amine]	0.0055
COc1cc(-c2[nH]c(-c3ccc4[nH]ncc4c3)nc2-c2ccncc2)cnc1N [Compound 167, 5-(2-(1H-indazol-5-yl)-4-(pyridin-4-yl)-1H-imidazol-5-yl)-3-methoxypyridin-2-amine]	0.0007
COc1cc(-c2[nH]c(-c3cccc4cccnc34)nc2-c2ccncc2)cnc1N [Compound 168]	0.0009
COc1cc(-c2[nH]c(-c3cccc4ncccc34)nc2-c2ccncc2)cnc1N [Compound 169, 3-methoxy-5-(4-(pyridin-4-yl)-2-(quinolin-5-yl)-1H-imidazol-5-yl)pyridin-2-amine]	0.0016
COc1cc(-c2[nH]c(-c3cccc(-c4ccncc4)c3)nc2-c2ccncc2)cnc1N [Compound 170, 3-methoxy-5-(4-(pyridin-4-yl)-2-(3-(pyridin-4-yl)phenyl)-1H-imidazol-5-yl)pyridin-2-amine]	0.0002
COc1cc(-c2nc(-c3ccc(F)cc3)[nH]c2-c2ccnc(C#N)c2)cnc1N [Compound 173, 4-(4-(6-amino-5-methoxypyridin-3-yl)-2-(4-fluorophenyl)-1H-imidazol-5-yl)picolinonitrile]	0.197
CC(=O)c1cc(-c2[nH]c(-c3ccc(F)cc3)nc2-c2ccncc2)cnc1N [Compound 177, 1-(2-amino-5-(2-(4-fluorophenyl)-4-(pyridin-4-yl)-1H-imidazol-5-yl)pyridin-3-yl)ethanone]	0.003
COc1cc(-c2[nH]c(-c3ccc4[nH]ccc4c3)nc2-c2ccncc2)cnc1N [Compound 178, 5-(2-(1H-indol-5-yl)-4-(pyridin-4-yl)-1H-imidazol-5-yl)-3-methoxypyridin-2-amine]	0.0009
COc1cc(-c2nc(C(C)(C)C)[nH]c2-c2ccnc(Nc3ccc(N4C[C@@H](C)O[C@@H](C)C4)nc3)n2)cnc1N [Compound 184, 4-(4-(6-amino-5-methoxypyridin-3-yl)-2-tert-butyl-1H-imidazol-5-yl)-N-(6-((2R,6S)-2,6-dimethylmorpholino)-pyridin-3-yl)pyrimidin-2-amine]	0.0003
COc1cc(-c2nc(C(C)(C)C)[nH]c2-c2ccnc(N[C@@H]3CCN(C(C)=O)C3)n2)cnc1N [Compound 185, (R)-1-(3-(4-(4-(6-amino-5-methoxypyridin-3-yl)-2-tert-butyl-1H-imidazol-5-yl)pyrimidin-2-ylamino)pyrrolidin-1-yl)ethanone]	0.0032
COc1cc(-c2nccc(-c3[nH]c(C(C)(C)C)nc3-c3cnc(N)c(OC)c3)n2)cnc1N [Compound 186, 5-(4-(4-(6-amino-5-methoxypyridin-3-yl)-2-tert-butyl-1H-imidazol-5-yl)pyrimidin-2-yl)-3-methoxypyridin-2-amine]	0.0299

Source: patent US20100003246A1, “Novel heterocyclic compounds and uses therof” (priority 2008, published 2010)
